This is an account of results in publication PMC10790229 (Journal of medicinal chemistry, 2023).

As a reminder, the EC50 is the concentration needed to bring the measured effect to its halfway point. As a reminder, the CC50 is the concentration giving 50% cytotoxicity. A lower CC50 goes with greater toxicity to the cells.

What all share (format): cell-based
One data set deals with HIV-1 IIIB. The data set can be described thus: Anti-HIV-1 activity in MT-4 cells. To be noted: for SI IIIB (CC50/EC50): HIV-1 IIIB; for SI IIIB (CC50/EC50) / Ratio IIIB(EC50)/ROD(EC50): MT-4 cells.
In another data set the test system is HIV-2 ROD. The data set can be described thus: Anti-HIV-2 activity in MT-4 cells. To be noted: HIV-2 ROD; for EC50: read-out: EC50 ROD, 50% protection of MT-4 cells against HIV-induced cytotoxicity.
The next data set concerns MT-4 cells. The data set is described as follows: Cytotoxicity in uninfected MT-4 cells.
Data set [1] is described as follows: Cytotoxicity in uninfected MT-4 cells. To be noted: human.

“(S)-2-(4-((4-Aminophenyl)sulfonyl)-2-oxopiperazin-1-yl)-N-(1-(3-(4-methoxyphenyl)-7-(methylsulfonyl)-4-oxo-3,4-dihydroquinazolin-2-yl)-2-phenylethyl)acetamide [12e1]”: in the data set with HIV-1 IIIB, the “SI IIIB (CC50/EC50)” value is reported as above 43.71 and the “Ratio IIIB(EC50)/ROD(EC50)” value was 10.97. In the data set with HIV-2 ROD (MT-4 cells), the “SI ROD (CC50/EC50)” value is on record as above 480.77. In addition, the EC50 in the data set on HIV-2 ROD is 350 ± 30 nM. This molecule also returned a CC50 in the data set with MT-4 cells above 168000 nM.
For the molecule `O=C(CN1CCN(S(=O)(=O)c2ccc([N+](=O)[O-])cc2)CC1=O)N[C@@H](Cc1ccccc1)c1nc2ccccc2c(=O)n1-c1ccc(S(=O)(=O)N2CCS(=O)(=O)CC2)cc1` [20b1, (S)-N-(1-(3-(4-((1,1-Dioxidothiomorpholino)sulfonyl)phenyl)-4-oxo-3,4-dihydroquinazolin-2-yl)-2-phenylethyl)-2-(4-((4-nitrophenyl)sulfonyl)-2-oxopiperazin-1-yl)acetamide], in the data set with HIV-1 IIIB, the “SI IIIB (CC50/EC50)” value is recorded as above 11.47 and the “Ratio IIIB(EC50)/ROD(EC50)” value is listed as 17.29. Moreover, the “SI ROD (CC50/EC50)” value in the data set with HIV-2 ROD (MT-4 cells) was above 198.41. In the data set with HIV-2 ROD, the EC50 is 730 ± 160 nM. For the same molecule, in the data set with MT-4 cells, the CC50 was above 145000 nM.
The like results for `Nc1ccc(S(=O)(=O)N2CCN(CC(=O)N[C@@H](Cc3cc(F)cc(F)c3)c3nc4ccccc4c(=O)n3-c3ccc(S(=O)(=O)N4CCS(=O)(=O)CC4)cc3)C(=O)C2)cc1` [21b2, (S)-2-(4-((4-Aminophenyl)sulfonyl)-2-oxopiperazin-1-yl)-N-(2-(3,5-difluorophenyl)-1-(3-(4-((1,1-dioxidothiomorpholino)sulfonyl)-phenyl)-4-oxo-3,4-dihydroquinazolin-2-yl)ethyl)acetamide] were, in that order, above 95.42, 2.52, above 240.38, 600 ± 150 nM and above 144000 nM.
For `COc1ccc(-n2c([C@H](Cc3cc(F)cc(F)c3)NC(=O)CN3CCN(S(=O)(=O)c4ccc([N+](=O)[O-])cc4)CC3=O)nc3ccccc3c2=O)cc1` [11a2, (S)-N-(2-(3,5-Difluorophenyl)-1-(3-(4-methoxyphenyl)-4-oxo-3,4-dihydroquinazolin-2-yl)ethyl)-2-(4-((4-nitrophenyl)sulfonyl)-2-oxopiperazin-1-yl)acetamide] the same measures were above 320.51, 1.29, above 416.67, 410 ± 40 nM and above 171000 nM.
The like results for `COc1ccc(-n2c([C@H](Cc3ccccc3)NC(=O)CN3CCN(S(=O)(=O)c4ccc([N+](=O)[O-])cc4)CC3=O)nc3cc(Cl)ccc3c2=O)cc1` [11c1, (S)-N-(1-(7-Chloro-3-(4-methoxyphenyl)-4-oxo-3,4-dihydroquinazolin-2-yl)-2-phenylethyl)-2-(4-((4-nitrophenyl)sulfonyl)-2-oxopiperazin-1-yl)acetamide] were, in that order, above 79.11, 5.14, above 403.23, 420 ± 40 nM and above 171000 nM.
On to `COc1ccc(-n2c([C@H](Cc3cc(F)cc(F)c3)NC(=O)CN3CCN(S(=O)(=O)c4ccc([N+](=O)[O-])cc4)CC3=O)nc3cc(S(C)(=O)=O)ccc3c2=O)cc1` [11e2, (S)-N-(2-(3,5-Difluorophenyl)-1-(3-(4-methoxyphenyl)-7-(methylsulfonyl)-4-oxo-3,4-dihydroquinazolin-2-yl)ethyl)-2-(4-((4-nitrophenyl)sulfonyl)-2-oxopiperazin-1-yl)acetamide], for which, in the data set on HIV-1 IIIB, the “SI IIIB (CC50/EC50)” value is listed as above 83.89 and the “Ratio IIIB(EC50)/ROD(EC50)” value amounted to 4.49. Moreover, the “SI ROD (CC50/EC50)” value in the data set with HIV-2 ROD (MT-4 cells) is listed as above 378.79. Further, the EC50 in the data set with HIV-2 ROD is 410 ± 50 nM. In addition, the CC50 with MT-4 cells is above 154000 nM.
For `COc1ccc(-n2c([C@H](Cc3cc(F)cc(F)c3)NC(=O)CN3CCN(S(=O)(=O)c4ccc([N+](=O)[O-])cc4)CC3=O)nc3cc(Br)ccc3c2=O)cc1` [11d2, (S)-N-(1-(7-Bromo-3-(4-methoxyphenyl)-4-oxo-3,4-dihydroquinazolin-2-yl)-2-(3,5-difluorophenyl)ethyl)-2-(4-((4-nitrophenyl)sulfonyl)-2-oxopiperazin-1-yl)acetamide] the same measures were above 156.25, 1.68, above 260.42, 590 ± 200 nM and above 154000 nM.
The like results for `Nc1ccc(S(=O)(=O)N2CCN(CC(=O)N[C@@H](Cc3ccccc3)c3nc4ccccc4c(=O)n3-c3ccc(S(=O)(=O)N4CCS(=O)(=O)CC4)cc3)C(=O)C2)cc1` [21b1, (S)-2-(4-((4-Aminophenyl)sulfonyl)-2-oxopiperazin-1-yl)-N-(1-(3-(4-((1,1-dioxidothiomorpholino)sulfonyl)phenyl)-4-oxo-3,4-dihydroquinazolin-2-yl)-2-phenylethyl)acetamide] were, in that order, above 75.76, 3.67, above 277.78, 540 ± 130 nM and above 150000 nM.
“(S)-N-(2-(3,5-Difluorophenyl)-1-(7-fluoro-3-(4-methoxyphenyl)-4-oxo-3,4-dihydroquinazolin-2-yl)ethyl)-2-(4-((4-nitrophenyl)sulfonyl)-2-oxopiperazin-1-yl)acetamide [11b2]”: in the data set with HIV-1 IIIB, the “SI IIIB (CC50/EC50)” value is listed as above 337.84 and the “Ratio IIIB(EC50)/ROD(EC50)” value is given as 1.40. For the same molecule, the “SI ROD (CC50/EC50)” value with HIV-2 ROD (MT-4 cells) was above 480.77. Also, in the data set on HIV-2 ROD, the EC50 came out at 350 ± 30 nM. Also, the CC50 with MT-4 cells is above 167000 nM.
With “(S)-N-(1-(7-Fluoro-3-(4-methoxyphenyl)-4-oxo-3,4-dihydroquinazolin-2-yl)-2-phenylethyl)-2-(4-((4-nitrophenyl)sulfonyl)-2-oxopiperazin-1-yl)acetamide [11b1]”, in the data set on HIV-1 IIIB, the “SI IIIB (CC50/EC50)” value is above 88.03 and the “Ratio IIIB(EC50)/ROD(EC50)” value is given as 3.55. For the same molecule, in the data set with HIV-2 ROD (MT-4 cells), the “SI ROD (CC50/EC50)” value was above 312.50. Further, the EC50 in the data set with HIV-2 ROD was found to be 560 ± 140 nM. Further, in the data set on MT-4 cells, the CC50 was above 175000 nM.
For the molecule `COc1ccc(N(C)C(=O)[C@H](Cc2ccccc2)NC(=O)CN2CCN(S(=O)(=O)c3ccc(N)cc3)CC2=O)cc1` [11L, reference compound], the EC50 in the data set on HIV-1 IIIB (Human immunodeficiency virus 1, IIIB, MT4, read-out: EC50 IIIB) turned out to be 280 ± 90 nM. Also, the midpoint of cytotoxicity in data set [1], the CC50, lay at 198000 ± 6850 nM.
Take `COc1ccc(-n2c([C@H](Cc3ccccc3)NC(=O)CN3CCN(S(=O)(=O)c4ccc([N+](=O)[O-])cc4)CC3=O)nc3cc(S(C)(=O)=O)ccc3c2=O)cc1` [11e1, (S)-N-(1-(3-(4-Methoxyphenyl)-7-(methylsulfonyl)-4-oxo-3,4-dihydroquinazolin-2-yl)-2-phenylethyl)-2-(4-((4-nitrophenyl)-sulfonyl)-2-oxopiperazin-1-yl)acetamide]: in the data set with HIV-1 IIIB, the “SI IIIB (CC50/EC50)” value is above 58.14 and the “Ratio IIIB(EC50)/ROD(EC50)” value is 8.66. In the data set on HIV-2 ROD (MT-4 cells), the “SI ROD (CC50/EC50)” value is recorded as above 500.00. For the same molecule, the EC50 in the data set with HIV-2 ROD came out at 320 ± 30 nM. The molecule further yielded a CC50 with MT-4 cells above 161000 nM.
Regarding “(S)-2-(4-((4-Aminophenyl)sulfonyl)-2-oxopiperazin-1-yl)-N-(1-(3-(4-methoxyphenyl)-4-oxo-3,4-dihydroquinazolin-2-yl)-2-phenylethyl)acetamide [12a1]”, in the data set on HIV-1 IIIB, the “SI IIIB (CC50/EC50)” value is above 290.70 and the “Ratio IIIB(EC50)/ROD(EC50)” value came to 4.27. Besides, the “SI ROD (CC50/EC50)” value in the data set on HIV-2 ROD (MT-4 cells) is reported as above 1250.00. In addition, in the data set on HIV-2 ROD, the EC50 was 150 ± 40 nM. Further, the CC50 in the data set on MT-4 cells is above 187000 nM.
The like results for “(S)-N-(1-(7-Chloro-3-(4-methoxyphenyl)-4-oxo-3,4-dihydroquinazolin-2-yl)-2-(3,5-difluorophenyl)ethyl)-2-(4-((4-nitrophenyl)sulfonyl)-2-oxopiperazin-1-yl)acetamide [11c2]” were, in that order, above 277.78, 1.48, above 403.23, 400 ± 100 nM and above 163000 nM.
With `COc1ccc(-n2c([C@H](Cc3cc(F)cc(F)c3)NC(=O)CN3CCN(S(=O)(=O)c4ccc(N)cc4)CC3=O)nc3cc(Cl)ccc3c2=O)cc1` [12c2, (S)-2-(4-((4-Aminophenyl)sulfonyl)-2-oxopiperazin-1-yl)-N-(1-(7-chloro-3-(4-methoxyphenyl)-4-oxo-3,4-dihydroquinazolin-2-yl)-2-(3,5-difluorophenyl)ethyl)acetamide], in the data set on HIV-1 IIIB, the “SI IIIB (CC50/EC50)” value is above 1250.00 and the “Ratio IIIB(EC50)/ROD(EC50)” value came out at 1.75. Moreover, in the data set on HIV-2 ROD (MT-4 cells), the “SI ROD (CC50/EC50)” value is above 2083.33 and the “fold improvement of anti-HIV-2 potency over PF74” value was found to be 47 fold. Further, the EC50 with HIV-2 ROD turned out to be 80 ± 10 nM. In the data set on MT-4 cells, this molecule showed a CC50 above 170000 nM.
On to “(S)-2-(4-((4-Aminophenyl)sulfonyl)-2-oxopiperazin-1-yl)-N-(1-(7-chloro-3-(4-methoxyphenyl)-4-oxo-3,4-dihydroquinazolin-2-yl)-2-phenylethyl)acetamide [12c1]”, for which, in the data set with HIV-1 IIIB, the “SI IIIB (CC50/EC50)” value is above 290.70 and the “Ratio IIIB(EC50)/ROD(EC50)” value is 6.10. Also, the “SI ROD (CC50/EC50)” value in the data set on HIV-2 ROD (MT-4 cells) was above 1736.11. Further, in the data set with HIV-2 ROD, the EC50 was determined as 100 ± 20 nM. In addition, the half-maximal cytotoxic concentration (CC50) in the data set with MT-4 cells was above 178000 nM.
In the case of `O=C(CN1CCN(S(=O)(=O)c2ccc([N+](=O)[O-])cc2)CC1=O)N[C@@H](Cc1cc(F)cc(F)c1)c1nc2ccccc2c(=O)n1-c1ccc(S(=O)(=O)N2CCOCC2)cc1` [20a2, (S)-N-(2-(3,5-Difluorophenyl)-1-(3-(4-(morpholinosulfonyl)-phenyl)-4-oxo-3,4-dihydroquinazolin-2-yl)ethyl)-2-(4-((4-nitrophenyl)sulfonyl)-2-oxopiperazin-1-yl)acetamide], in the data set with HIV-1 IIIB, the “SI IIIB (CC50/EC50)” value is above 892.86 and the “Ratio IIIB(EC50)/ROD(EC50)” value is 0.89. Besides, the “SI ROD (CC50/EC50)” value in the data set on HIV-2 ROD (MT-4 cells) is on record as above 833.33. For the same molecule, the EC50 in the data set on HIV-2 ROD amounted to 180 ± 50 nM. This molecule gave a CC50 in the data set on MT-4 cells above 147000 nM.
